Measured values from patent publication US4171367A, “Pyrazolyl amino imidazolines” (Abbott Laboratories, priority 1977, dated 1979).
Counter-ions that a name gives are not always drawn. Like-named read-outs stand apart in the source and are kept apart here.

System: reverse passive Arthus reaction
Experiment: reverse passive Arthus reaction test in rats (anti-inflammatory effect, oral)
Assay type: in vivo, rat (male Sprague-Dawley)
Settings: 4 h, read-out: Percent Inhibition of Arthus Reaction; for inhibition in vivo at 25 mg/kg: oral dose 25 mg/kg
From the text: The anti-inflammatory activity of the compounds of this invention was established using the reverse passive Arthus reaction in the rat as described by G. W. Carter and R. A. Krause in Federation Proceedings, Vol. 35, p. 774, 1976. The carrageenin rat paw edema test (Winter et al, Proc. Soc. Exp. Biol. Med., 111, 554, 1962) can be used to establish anti-inflammatory activity, however, unlike carrageenin induced edema, the Arthus reaction is a well characterized immune reaction which bears close resemblance to the pathogenisis of rheumatoid arthritis.
The Arthus reaction represents one of the oldest and best studied models of immunological injury. It is produced by the injection of antigen locally into a hyperimmunized animal or by the injection of a small amount of antibody into the skin of an animal that has just previously been given a large amount of soluble antigen intravenously. In both cases the antigen and antibody become deposited in the walls of small venules. Plasma complement is rapidly bound and activated. Within a few hours neutrophils (PMNs) accumulate, resulting in disruption of the basement membrane of vessel walls and marked edema and hemorrage in the surrounding tissue.
The reverse passive Arthus reaction test in rats is conducted as follows. Male Sprague-Dawley rats weighing approximately 130-160 g. are used, 4 rats per group. All animals are injected intravenously with 0.5 ml. 0.075% Bovine Serum Albumin (B.S.A.)+0.2% Evans Blue solution. Each rat then receives an oral dose of drug; one drug is administered per group.
Thirty minutes subsequent to drug dosing, each animal is injected intradermally with 0.05 ml. 1.44% Anti-B.S.A. into the dorsal skin. Four hours later the animals are sacrificed, the dorsal skin reflexed, and the lesion excised. Two perpendicular diameters of each lesion are measured. The average diameters of the lesions from the treated groups are compared with the average diameters from the control group to determine any drug effect.
The anti-inflammatory activity of representative compounds of this invention, as determined by the reverse passive Arthus reaction test in rats, is summarized in Table I.

**Q.** With Brc1c(-c2ccccc2)nn(-c2ccccc2)c1NC1=NCCN1 [R1=C6H5, R2=C6H5, R3=Br, R4=H, 2(4-Bromo-1,3-diphenyl-5-pyrazolyl) amino-2-imidazoline hydrobromide] as the compound, how does the inhibition in vivo at 100 mg/kg (oral dose 100 mg/kg, rat) read?
**A.** The inhibition in vivo at 100 mg/kg was 17%.

**Q.** Which inhibition in vivo at 100 mg/kg (oral dose 100 mg/kg, rat) does the source give for c1ccc(-c2cc(NC3=NCCN3)n(-c3ccccc3)n2)cc1 [R1=C6H5, R2=C6H5, R3=H, R4=H, 2(1,3-Diphenyl-5-pyrazolyl) amino-2-imidazoline] here?
**A.** Its inhibition in vivo at 100 mg/kg is 32%.

**Q.** With Brc1cnn(-c2ccccc2)c1NC1=NCCN1 [R1=C6H5, R2=H, R3=Br, R4=H, 2-(4-Bromo-1-phenyl-5-pyrazolyl)-amino-2-imidazoline hydrochloride] as the compound, how does the inhibition in vivo at 25 mg/kg (rat) read?
**A.** Its inhibition in vivo at 25 mg/kg is 41%.

**Q.** What about the inhibition in vivo at 100 mg/kg (oral dose 100 mg/kg, rat) of the same compound?
**A.** The inhibition in vivo at 100 mg/kg was 59%.

**Q.** How did the inhibition in vivo at 100 mg/kg (oral dose 100 mg/kg, rat) turn out when CC(=O)N1CCN=C1Nc1ccnn1-c1ccccc1 [R1=C6H5, R2=H, R3=H, R4=COCH3, 1-Acetyl-2-(1-phenyl-5-pyrazolyl)-amino-2-imidazoline] was run?
**A.** Its inhibition in vivo at 100 mg/kg is 70%.

**Q.** Which results are given for c1ccc(-n2nccc2NC2=NCCN2)cc1 [R1=C6H5, R2=H, R3=H, R4=H, 2-(1-Phenyl-5-pyrazolyl)-amino-2-imidazoline]?
**A.** inhibition in vivo at 25 mg/kg (rat): 62%; inhibition in vivo at 100 mg/kg (oral dose 100 mg/kg, rat): 75%

**Q.** How did the inhibition in vivo at 100 mg/kg (Rattus norvegicus, po) turn out when CC(C)c1nn(C(C)C)c(NC2=NCCN2)c1Br [R1=Me2CH, R2=Me2CH, R3=Br, R4=H, 2-(4-Bromo-1,3-di-isopropyl-5-pyrazolyl)amino-2-imidazoline hydrobromide] was run?
**A.** Its inhibition in vivo at 100 mg/kg is 27%.

**Q.** CC(C)c1cc(NC2=NCCN2)n(C(C)C)n1 [R1=Me2CH, R2=Me2CH, R3=H, R4=H, 2-(1,3-Di-isopropyl-5-pyrazolyl)-amino-2-imidazoline] was tested. Which inhibition in vivo at 100 mg/kg (oral dose 100 mg/kg, rat) did it give?
**A.** The inhibition in vivo at 100 mg/kg was 11%.

**Q.** Which results are given for CC(=O)N1CCN=C1Nc1cc(C)nn1C(C)C [R1=Me2CH, R2=Me, R3=H, R4=COCH3, 1-Acetyl-2(1-isopropyl-3-methyl-5-pyrazolyl)amino-2-imidazoline]?
**A.** inhibition in vivo at 50 mg/kg (oral dose 50 mg/kg, rat): 30%; inhibition in vivo at 100 mg/kg (oral dose 100 mg/kg, rat): 39%

**Q.** How did the inhibition in vivo at 50 mg/kg (oral dose 50 mg/kg, rat) turn out when Cc1cc(NC2=NCCN2)n(C(C)C)n1 [R1=Me2CH, R2=Me, R3=H, R4=H, 2-(1-Isopropyl-3-methyl-5-pyrazolyl)amino-2-imidazoline] was run?
**A.** The inhibition in vivo at 50 mg/kg was 20%.

**Q.** And the inhibition in vivo at 100 mg/kg (oral dose 100 mg/kg, rat)?
**A.** The inhibition in vivo at 100 mg/kg was 29%.

**Q.** With Cc1nn(CCC(C)C)c(NC2=NCCN2)c1Br [R1=Me2CHCH2CH2, R2=Me, R3=Br, R4=H, 2[4-Bromo-1-(3-methylbutyl)-3-methyl-5-pyrazolyl]amino-2-imidazoline hydrochloride] as the compound, how does the inhibition in vivo at 100 mg/kg (Rattus norvegicus, po) read?
**A.** The inhibition in vivo at 100 mg/kg was 16%.

**Q.** For Cc1cc(NC2=NCCN2)n(CCC(C)C)n1 [R1=Me2CHCH2CH2, R2=Me, R3=H, R4=H, 2[1-(3-Methylbutyl)-3-methyl-5-pyrazolyl]amino-2-imidazoline], which inhibition in vivo at 100 mg/kg (Rattus norvegicus, po) is on record?
**A.** Its inhibition in vivo at 100 mg/kg is 15%.

**Q.** What does the source list for CC(C)c1nn(C)c(NC2=NCCN2)c1Br [R1=Me, R2=Me2CH, R3=Br, R4=H, 2(4-Bromo-3-isopropyl-1-methyl-5-pyrazolyl)amino-2-imidazoline hydrobromide]?
**A.** inhibition in vivo at 50 mg/kg (Rattus norvegicus, po): 37%; inhibition in vivo at 100 mg/kg (Rattus norvegicus, po): 42%

**Q.** Which inhibition in vivo at 100 mg/kg (oral dose 100 mg/kg, rat) does the source give for CC(=O)N1CCN=C1Nc1cc(C(C)C)nn1C [R1=Me, R2=Me2CH, R3=H, R4=COCH3, 1-Acetyl-2(3-isopropyl-1-methyl-5-pyrazolyl)amino-2-imidazoline] here?
**A.** The inhibition in vivo at 100 mg/kg was 18%.

**Q.** How did the inhibition in vivo at 50 mg/kg (oral dose 50 mg/kg, rat) turn out when CC(C)c1cc(NC2=NCCN2)n(C)n1 [R1=Me, R2=Me2CH, R3=H, R4=H, 2(3-Isopropyl-1-methyl-5-pyrazolyl)-amino-2-imidazoline] was run?
**A.** Its inhibition in vivo at 50 mg/kg is 33%.

**Q.** And the inhibition in vivo at 100 mg/kg (oral dose 100 mg/kg, rat)?
**A.** Its inhibition in vivo at 100 mg/kg is 42%.

**Q.** For Cc1nn(C)c(Cl)c1NC1=NCCN1 [R1=Me, R2=Me, R3=(5) (C1), R4=H, 2-(4-chloro-1,3-dimethyl-4-pyrazolyl)-amino-2-imidazoline hydrochloride], which inhibition in vivo at 10 mg/kg (oral dose 10 mg/kg, rat) is on record?
**A.** Its inhibition in vivo at 10 mg/kg is 49%.

**Q.** What about the inhibition in vivo at 25 mg/kg (rat) of the same compound?
**A.** The inhibition in vivo at 25 mg/kg was 64%.

**Q.** What about the inhibition in vivo at 100 mg/kg (oral dose 100 mg/kg, rat) of the same compound?
**A.** The inhibition in vivo at 100 mg/kg was 69%.

**Q.** CC(=O)N1CCN=C1Nc1c(C)nn(C)c1Cl [R1=Me, R2=Me, R3=(5) C1, R4=COCH3, 1-acetyl-2-(5-chloro-1,3-dimethyl-4-pyrazolyl) amino-2-imidazoline hydrochloride] was tested. Which inhibition in vivo at 25 mg/kg (rat) did it give?
**A.** Its inhibition in vivo at 25 mg/kg is 39%.

**Q.** And the inhibition in vivo at 100 mg/kg (oral dose 100 mg/kg, rat)?
**A.** The inhibition in vivo at 100 mg/kg was 63%.

**Q.** Cc1nn(C)c(NC2=NCCN2)c1Br [R1=Me, R2=Me, R3=Br, R4=H, 2(4-Bromo-1,3-dimethyl-5-pyrazolyl)-amino-2-imidazoline] was tested. Which inhibition in vivo at 50 mg/kg (oral dose 50 mg/kg, rat) did it give?
**A.** Its inhibition in vivo at 50 mg/kg is 45%.

**Q.** Which inhibition in vivo at 100 mg/kg (oral dose 100 mg/kg, rat) does the source give for Cc1cc(NC2=NCCN2)n(C)n1 [R1=Me, R2=Me, R3=H, R4=H, 2(1,3-Dimethyl-5-pyrazolyl) amino-b 2-imidazoline] here?
**A.** Its inhibition in vivo at 100 mg/kg is 55%.

**Q.** How did the inhibition in vivo at 100 mg/kg (oral dose 100 mg/kg, rat) turn out when Cc1nn(C)c(NC2=NCCN2)c1I [R1=Me, R2=Me, R3=I, R4=H, 2(1,3-Dimethyl-4-iodo-5-pyrazolyl)-amino-2-imidazoline] was run?
**A.** Its inhibition in vivo at 100 mg/kg is 43%.

**Q.** For Brc1cnn(C2CCCCC2)c1NC1=NCCN1 [R1=drawing 4, R2=H, R3=Br, R4=H, 2-(4-Bromo-1-cyclohexyl-5-pyrazolyl)-amino-2-imidazoline hydrochloride], which inhibition in vivo at 100 mg/kg (oral dose 100 mg/kg, rat) is on record?
**A.** The inhibition in vivo at 100 mg/kg was 15%.

**Q.** With c1cc(NC2=NCCN2)n(C2CCCCC2)n1 [R1=drawing 5, R2=H, R3=H, R4=H, 2-(1-Cyclohexyl-5-pyrazolyl)-amino-2-imidazoline] as the compound, how does the inhibition in vivo at 100 mg/kg (oral dose 100 mg/kg, rat) read?
**A.** Its inhibition in vivo at 100 mg/kg is 15%.
